Test results as given in the NIST ThermoML archive (doi:10.1016/j.fluid.2007.07.066).

Experiment: wn = mass fraction of the nth substance listed
Conditions: 101 kPa, Liquid; for speed of sound: Sing-around technique in a fixed-path interferometer

CCCO [propan-1-ol] + O
Conditions	mass density, 283.15 K [kg/m3]	mass density, 288.15 K [kg/m3]	mass density, 293.15 K [kg/m3]	mass density, 298.15 K [kg/m3]	mass density, 303.15 K [kg/m3]	speed of sound, 283.15 K [m/s]	speed of sound, 288.15 K [m/s]	speed of sound, 293.15 K [m/s]	speed of sound, 298.15 K [m/s]	speed of sound, 303.15 K [m/s]
w1 = 0.05	992.444	991.727	990.715	989.431	987.905	1501.2	1514.5	1526.2	1536.2	1544.7
w1 = 0.1	987.274	986.285	985.011	983.475	981.701	1547.4	1555.6	1562.4	1568	1572.2
w1 = 0.15	983.045	981.663	980.011	978.117	976.004	1584	1586.5	1588.1	1588.6	1588.1
